Laboratory results reported in US20250032483A1, “COMPOSITIONS AND METHODS FOR TREATING PAIN” (ICAHN SCHOOL OF MEDICINE AT MOUNT SINAI, priority 2021, published 2025).
“Also recorded” adds a separate entry of the source.

Key:
[1] = system: CFA model of peripheral inflammation in female mice; assay: Hargreaves' thermal beam assay, CFA model; format: in vivo; settings: 5 mg/kg i.p. QD, vs saline
Procedure: (§1) The inventors used the CFA model of peripheral inflammation in female mice to determine the impact of ILF3 inhibition in sensory hypersensitivity behaviors associated with inflammatory pain states. […] To identify any immediate analgesic effects of YM155 under local, peripheral inflammation conditions, the inventors first tested CFA-injected mice in the Von Frey and Hargreave's assays at 30 minutes post-drug administration.
(§2) The inventors also tested whether YM155 had sustained effects on sensory hypersensitivity after the expected window of activity (approximately 24 hours post-injection, based on a ˜one hour half-life in intravenously-treated mice).
(§3) For studies using models of peripheral inflammation, two-to three-month old mice received 30 μL left hindpaw injections of Complete Freund's Adjuvant (CFA: diluted 1:1 in saline) or IFNB injections (300 U per 25 μL), as described previously. For studies using the post-operative incision model, two-to three-month-old mice received an incision from the posterior plantar surface of the hindpaw to the middle of the paw pads, in which dermis and superficial muscle was cut and dermis was sutured afterwards. […]
The CFA model induces thermal hypersensitivity for 10-14 days on average. […] Three measurements were recorded and averaged for each hindpaw, with each measurement taking place at least two minutes apart.

[2] = system: CFA model of peripheral inflammation in female mice; assay: Von Frey assay, CFA model; format: in vivo; settings: 5 mg/kg i.p. QD, vs saline
Procedure: as §1, §2
For studies using models of peripheral inflammation, two-to three-month old mice received 30 μL left hindpaw injections of Complete Freund's Adjuvant (CFA: diluted 1:1 in saline) or IFNB injections (300 U per 25 μL), as described previously. […]
(§4) Hamsters/mice were placed on a raised grid platform in plastic containers and were allowed to habituate to their environment for a minimum of 10 minutes. Afterwards, filaments of ascending forces were applied to the left hindpaw and responses were recorded. […] Progression to the next filament was determined by recording of positive or negative responses for three out of five applications with each filament. […]

[3] = Body weight during YM155 administration, CFA model; format: in vivo, mice; settings: 5 mg/kg i.p. QD; first 9 days of treatment
Procedure: as §2
For studies using models of peripheral inflammation, two-to three-month old mice received 30 μL left hindpaw injections of Complete Freund's Adjuvant (CFA: diluted 1:1 in saline) or IFNB injections (300 U per 25 μL), as described previously. For studies using the post-operative incision model, two-to three-month-old mice received an incision from the posterior plantar surface of the hindpaw to the middle of the paw pads, in which dermis and superficial muscle was cut and dermis was sutured afterwards. CFA and paw incision groups of mice received daily intraperitoneal (i.p.) injections of saline (vehicle) or YM155 (Tocris Biosciences), an Interleukin Enhancer Binding Factor 3 (ILF3) inhibitor (2.5 or 5 mg/kg diluted in saline).

[4] = system: interferon-induced mechanical hypersensitivity in mice; assay: Von Frey assay, hindpaw IFNβ injection model; format: in vivo
Excerpt: While the CFA model promotes both peripheral interferon and cytokine signaling. the inventors wanted to investigate the role of ILF3 inhibition in a model of isolated interferon signaling to better understand its role in virus-induced hypersensitivity. For this, the inventors implemented hindpaw interferon β (IFNβ) injections. The inventors compared mechanical thresholds between a group of female mice that received no IFNβ injection and daily saline (Naïve-Saline), a group that received a single IFNβ injection and daily saline (IFNβ-Saline). and a group that received a single IFNβ injection and immediate daily administration of YM155 (5 mg/kg i.p. BID: IFNβ-YM155). […] The inventors therefore performed an experiment in which a Naïve-Saline and IFNβ-Saline group began receiving YM155 (2.5 mg/kg i.p. BID) after mechanical thresholds were taken one day after intraplantar injections. […] ILF3 inhibition is effective at suppressing interferon-induced hypersensitivity in both mouse sexes. […]
as §4

[5] = system: paw incision model mice; assay: Von Frey assay, paw incision model (pre-treatment); format: in vivo; settings: pre-treatment 5 mg/kg i.p. for seven days; no drug after incision; vs saline
Procedure: (§5) The inventors also tested whether YM155 could be used to prophylactically reduce pain experienced after acute post-operative injuries. For this, the inventors used the paw incision model and pre-treated animals at a dose of 5 mg/kg i.p, for seven days. Animals were not treated with drug after the incision.
as §3, §4

[6] = system: paw incision model mice; assay: Locomotor activity after paw incision; format: in vivo; settings: Day 1 post-paw incision; YM155 vs saline
Procedure: as §5

[7] = system: mice; assay: Toxicity observed on dosing in mice; format: in vivo
[8] = intravenously-treated mice; cited from earlier work
[9] = CFA-injected female mice, 30-60 minutes after administration

SMILES: COCCn1c2c([n+](Cc3cnccn3)c1C)C(=O)c1ccccc1C2=O [YM155]
- thermal thresholds / Hargreaves' withdrawal latency, sustained ([1]; CFA mice, ~24 hours post-injection, six consecutive days of administration (PD-D6)): increased thermal thresholds in a sustained fashion; also recorded: significantly higher withdrawal latency
- thermal thresholds / Hargreaves' response times [1, 9]: increased thermal thresholds; also recorded: increased Hargreaves' response times
- mechanical thresholds (von Frey), sustained ([2]; CFA mice, ~24 hours after administration, PD-D5, PD-D7, PD-D9): increased mechanical thresholds in a sustained fashion; also recorded: sustained recovery of mechanical thresholds
- mechanical (von Frey) thresholds [2, 9]: increased mechanical thresholds; also recorded: increased von Frey thresholds
- post-CFA weight [3]: No changes in post-CFA weight were observed
- interferon-induced mechanical hypersensitivity (mechanical thresholds) ([4]; female mice, hindpaw IFNβ 300U/25 μL, concurrent YM155 5 mg/kg i.p., days 1 and 3 after IFNβ, 5 mg/kg): interrupted the onset of interferon-induced mechanical hypersensitivity; also recorded: no change in thresholds
- mechanical thresholds, IFNβ group ([4]; male mice, 2.5 mg/kg i.p. BID started one day after intraplantar injection, by day three): substantial increase in mechanical thresholds
- mechanical hypersensitivity after paw incision [5]: significantly lower mechanical hypersensitivity after paw incision; also recorded: significant reduction in mechanical hypersensitivity
- locomotion / locomotor activity [6]: No differences in locomotion were observed; also recorded: no changes in locomotor activity
- toxicity ([7]; female mice, 20 mg/kg): lethal toxicity
- toxicity ([7]; male mice, 2.5 mg/kg i.p. BID): did not observe toxicity
- toxicity ([7]; male mice, 5 mg/kg dose): increased sensitivity to the drug and subsequent toxicity
- half-life [8]: one
